Assay results from patent publication US20210127673A1, “HERBICIDES” (SYNGENTA PARTICIPATIONS AG, priority 2016, published 2021).

Assays:
Assay type in all cases: in vivo
Conditions in all cases: evaluated after 13 days
[1] = test system: Triticum aestivium (TRZAW); test: Pre-emergence herbicidal activity, Triticum aestivium; design: key: 5=total damage to plant; 0=no damage to plant
How it was run: (§1)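 Seeds sown in standard soil in pots, grown one day in a glasshouse (24/16 °C day/night, 14 h light, 65% humidity), then sprayed pre-emergence with compound in acetone/water (50:50) containing 0.5% Tween 20. Plants were scored after 13 days on a 0–5 scale (5 = total damage, 0 = none).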

[2] = test system: Avena fatua (AVEFA); test: Pre-emergence herbicidal activity, Avena fatua
How it was run: as §1

[3] = test system: Alopecurus myosuroides (ALOMY); test: Pre-emergence herbicidal activity, Alopecurus myosuroides; design: key: 5=total damage to plant; 0=no damage to plant
How it was run: as §1

[4] = test system: Echinochloa crus-galli (ECHCG); test: Pre-emergence herbicidal activity, Echinochloa crus-galli; design: key: 5=total damage to plant; 0=no damage to plant
How it was run: as §1

[5] = test system: Lolium perenne (LOLPE); test: Pre-emergence herbicidal activity, Lolium perenne; design: key: 5=total damage to plant; 0=no damage to plant
How it was run: as §1

[6] = test system: Setaria faberi (SETFA); test: Pre-emergence herbicidal activity, Setaria faberi; design: key: 5=total damage to plant; 0=no damage to plant
How it was run: as §1

[7] = test system: Triticum aestivium (TRZAW); test: Post-emergence herbicidal activity, Triticum aestivium; design: key: 5=total damage to plant; 0=no damage to plant
How it was run: (§2)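 Post-em, 8 d plants, pots; acetone:water 1:1 + 0.5% Tween 20 spray; 24/16 °C, 14 h photoperiod, 65% RH; 13 d readout, 0–5 phytotoxicity scale.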

[8] = test system: Avena fatua (AVEFA); test: Post-emergence herbicidal activity, Avena fatua
How it was run: as §2

[9] = test system: Alopecurus myosuroides (ALOMY); test: Post-emergence herbicidal activity, Alopecurus myosuroides; design: key: 5=total damage to plant; 0=no damage to plant
How it was run: as §2

[10] = test system: Echinochloa crus-galli (ECHCG); test: Post-emergence herbicidal activity, Echinochloa crus-galli; design: key: 5=total damage to plant; 0=no damage to plant
How it was run: as §2

[11] = test system: Lolium perenne (LOLPE); test: Post-emergence herbicidal activity, Lolium perenne; design: key: 5=total damage to plant; 0=no damage to plant
How it was run: as §2

[12] = test system: Setaria faberi (SETFA); test: Post-emergence herbicidal activity, Setaria faberi; design: key: 5=total damage to plant; 0=no damage to plant
How it was run: as §2

O=C(Nc1ccc(-c2cncnc2)nc1C(F)(F)F)N1CCOCC1 [Compound B55]
Control of TRAZW after pre-emergence application (score 0-5) ([1]; 1000 g/ha): 0
Control of AVEFA after pre-emergence application (score 0-5) ([2]; 1000 g/ha): 1
Control of ALOMY after pre-emergence application (score 0-5) ([3]; 1000 g/ha): 0
Control of ECHCG after pre-emergence application (score 0-5) ([4]; 1000 g/ha): 1
Control of LOLPE after pre-emergence application (score 0-5) ([5]; 1000 g/ha): 0
Control of SETFA after pre-emergence application (score 0-5) ([6]; 1000 g/ha): 1
Control of TRAZW after post-emergence application (score 0-5) ([7]; 1000 g/ha): 0
Control of AVEFA after post-emergence application (score 0-5) ([8]; 1000 g/ha): 2
Control of ALOMY after post-emergence application (score 0-5) ([9]; 1000 g/ha): 0
Control of ECHCG after post-emergence application (score 0-5) ([10]; 1000 g/ha): 3
Control of LOLPE after post-emergence application (score 0-5) ([11]; 1000 g/ha): 1
Control of SETFA after post-emergence application (score 0-5) ([12]; 1000 g/ha): 4

C=CCN(C(=O)N(C)C)c1ccc(-c2cncc(F)c2)nc1C(F)(F)F [Compound B123]
Control of TRAZW after pre-emergence application (score 0-5) ([1]; 1000 g/ha): 0
Control of AVEFA after pre-emergence application (score 0-5) ([2]; 1000 g/ha): 1
Control of ALOMY after pre-emergence application (score 0-5) ([3]; 1000 g/ha): 0
Control of ECHCG after pre-emergence application (score 0-5) ([4]; 1000 g/ha): 3
Control of LOLPE after pre-emergence application (score 0-5) ([5]; 1000 g/ha): 1
Control of SETFA after pre-emergence application (score 0-5) ([6]; 1000 g/ha): 5
Control of TRAZW after post-emergence application (score 0-5) ([7]; 1000 g/ha): 1
Control of AVEFA after post-emergence application (score 0-5) ([8]; 1000 g/ha): 2
Control of ALOMY after post-emergence application (score 0-5) ([9]; 1000 g/ha): 2
Control of ECHCG after post-emergence application (score 0-5) ([10]; 1000 g/ha): 3
Control of LOLPE after post-emergence application (score 0-5) ([11]; 1000 g/ha): 1
Control of SETFA after post-emergence application (score 0-5) ([12]; 1000 g/ha): 5

CCCCNC(=O)Nc1ccc(-c2cncc(F)c2)nc1C(F)(F)F [Compound B106]
Control of TRAZW after pre-emergence application (score 0-5) ([1]; 250 g/ha): 0
Control of AVEFA after pre-emergence application (score 0-5) ([2]; 250 g/ha): 1
Control of ALOMY after pre-emergence application (score 0-5) ([3]; 250 g/ha): 0
Control of ECHCG after pre-emergence application (score 0-5) ([4]; 250 g/ha): 1
Control of LOLPE after pre-emergence application (score 0-5) ([5]; 250 g/ha): 1
Control of SETFA after pre-emergence application (score 0-5) ([6]; 250 g/ha): 5
Control of TRAZW after post-emergence application (score 0-5) ([7]; 250 g/ha): 0
Control of AVEFA after post-emergence application (score 0-5) ([8]; 250 g/ha): 3
Control of ALOMY after post-emergence application (score 0-5) ([9]; 250 g/ha): 0
Control of ECHCG after post-emergence application (score 0-5) ([10]; 250 g/ha): 3
Control of LOLPE after post-emergence application (score 0-5) ([11]; 250 g/ha): 1
Control of SETFA after post-emergence application (score 0-5) ([12]; 250 g/ha): 5

CC(C)OC(=O)Nc1ccc(-c2cncc(F)c2)nc1C#N [Compound B115]
Control of TRAZW after pre-emergence application (score 0-5) ([1]; 1000 g/ha): 0
Control of AVEFA after pre-emergence application (score 0-5) ([2]; 1000 g/ha): 2
Control of ALOMY after pre-emergence application (score 0-5) ([3]; 1000 g/ha): 0
Control of ECHCG after pre-emergence application (score 0-5) ([4]; 1000 g/ha): 4
Control of LOLPE after pre-emergence application (score 0-5) ([5]; 1000 g/ha): 0
Control of SETFA after pre-emergence application (score 0-5) ([6]; 1000 g/ha): 5
Control of TRAZW after post-emergence application (score 0-5) ([7]; 1000 g/ha): 1
Control of AVEFA after post-emergence application (score 0-5) ([8]; 1000 g/ha): 4
Control of ALOMY after post-emergence application (score 0-5) ([9]; 1000 g/ha): 1
Control of ECHCG after post-emergence application (score 0-5) ([10]; 1000 g/ha): 5
Control of LOLPE after post-emergence application (score 0-5) ([11]; 1000 g/ha): 3
Control of SETFA after post-emergence application (score 0-5) ([12]; 1000 g/ha): 5

COc1nc(-c2cncc(F)c2)ccc1N(C(=O)OC(C)(C)C)C(=O)OC(C)(C)C [Compound B109]
Control of TRAZW after pre-emergence application (score 0-5) ([1]; 1000 g/ha): 0
Control of AVEFA after pre-emergence application (score 0-5) ([2]; 1000 g/ha): 1
Control of ALOMY after pre-emergence application (score 0-5) ([3]; 1000 g/ha): 0
Control of ECHCG after pre-emergence application (score 0-5) ([4]; 1000 g/ha): 0
Control of LOLPE after pre-emergence application (score 0-5) ([5]; 1000 g/ha): 0
Control of SETFA after pre-emergence application (score 0-5) ([6]; 1000 g/ha): 3
Control of TRAZW after post-emergence application (score 0-5) ([7]; 1000 g/ha): 0
Control of AVEFA after post-emergence application (score 0-5) ([8]; 1000 g/ha): 1
Control of ALOMY after post-emergence application (score 0-5) ([9]; 1000 g/ha): 0
Control of ECHCG after post-emergence application (score 0-5) ([10]; 1000 g/ha): 1
Control of LOLPE after post-emergence application (score 0-5) ([11]; 1000 g/ha): 0
Control of SETFA after post-emergence application (score 0-5) ([12]; 1000 g/ha): 1
